According to publication PMC3812244, “Organophosphate and Pyrethroid Hydrolase Activities of Mutant Esterases from the Cotton Bollworm Helicoverpa armigera” (PLoS ONE, 2013):

Key:
Assay in all cases: spectrophotometric esterase kinetics, active-site titrated enzyme
Conditions in all cases: wild-type values collected contemporaneously, also reported in Teese et al. [32]
[1] = test system: T1, 001b (CCE-001b); format: biochemical, Helicoverpa armigera
T1 construct: gene CCE001b; untagged, baculovirus expressed in Sf9 cells; titrated active sites
From the text: spectrophotometric esterase kinetics, active-site titrated enzyme on 001b (CCE-001b)

[2] = test system: T2, 001f (CCE-001f); format: biochemical, Helicoverpa armigera
T2 construct: gene CCE001f; untagged, baculovirus expressed in Sf9 cells; titrated active sites
From the text: spectrophotometric esterase kinetics, active-site titrated enzyme on 001f (CCE-001f)

[3] = test system: CC(=O)Oc1cccc2ccccc12; format: biochemical, Lucilia cuprina
From the text: spectrophotometric esterase kinetics, active-site titrated enzyme on E3

Compound | Km [1] | Km [2] | Km [3] | kcat [3]
CC(=O)Oc1cccc2ccccc12 [1-naphthyl acetate] | 199 µM | 4 µM | – | –
E3 (Lucilia cuprina) | – | – | 88 (10) µM | 1399 (70) sec^-1
